Laboratory results reported in PMC8217170, “Phase Ib dose-escalation study of the hypoxia-modifier Myo-inositol trispyrophosphate in patients with hepatopancreatobiliary tumors” (Nature Communications, 2021).

Assay: Phase Ib dose escalation: safety and tolerability (CTCAE v4.03), MTD
Type: in vivo, human
Design: key to Hypercalcemia, CTCAE-Grade / Hypophosphatemia, CTCAE-Grade / Cholestasis, CTCAE-Grade / Nausea, CTCAE-Grade / Hypertension, CTCAE-Grade / Upper respiratory tract infection, CTCAE-Grade / Hyponatremia, CTCAE-Grade / Hypomagnesemia, CTCAE-Grade / Ascites & death due to rapid progression of malignancy, CTCAE-Grade / Hypokalemia, CTCAE-Grade / Pyrexia, CTCAE-Grade / Hyperphosphatemia, CTCAE-Grade / AV Block 1°, CTCAE-Grade / Palpations, CTCAE-Grade: 1 is the mildest form of the specific symptom; 5 is death
Conditions: for Hypercalcemia, CTCAE-Grade: relationship to IMP: Definitively
Text: This first-in-patient investigator-initiated phase Ib dose-escalation study followed a 3 + 3 dose-escalation scheme with a planned maximal inclusion of 48 participants allocated to eight cohorts of increasing doses. Outcomes were safety, tolerability, pharmacokinetics, and preliminary efficacy of ITPP with participants in this exploratory, prospective, open-label and unblinded, unrandomized, single-center investigation being enrolled at the University Hospital Zurich (USZ), Switzerland. Written informed consent was obtained of all participants before study inclusion after a time of consideration of at least 24 h. Written consent included the reporting and publication of individual, anonymized patient data. The study adhered to the principles of the Declaration of Helsinki, current good clinical practice guidelines and all ethical regulations. The study protocol was approved by the responsible independent ethics committee of Zurich (KEK-ZH-Nr. 2014-0374) and the national regulatory authority Swissmedic (2015DR1009) and is provided in the Supplementary Note 1. The study setup was published before inclusion start[55] and the trial first registered at ClinicalTrials.gov (NCT02528526) on 11/11/2014. After 6 sequential reviews requiring minor editorial changes, final registration at ClinicalTrials.gov was obtained on the 08/18/2015. The first patient was included in the study 04/13/2015, with treatment started on the 04/27/2015. 4 patients were included in the trial before final registration at ClinicalTrials.gov (04/13/2015–07/20/2015). The last patient was included on the 06/12/2018, treatment started on the 06/18/2018 and the last treatment administered on 07/06/2018. Data cut-off for the study was the 12/31/2018. The manuscript was written in compliance with ICMJE guidelines.
Primary objectives were (i) assessment of the safety and tolerability of increasing doses of ITPP, and (ii) establishment of the MTD (primary endpoint) according to the dose escalation schema. The primary outcome was measured by collection of adverse effects information according to Common Terminology Criteria for Adverse Events (CTCAE, US National Cancer Institute, version 4.03). Safety objectives and outcomes were identical with the primary endpoint.
The study drug (brand name: OXY111A) was intravenously administered in 9 infusions, each lasting 8 h, over 3 weeks in an outpatient setting at the Phase 1 unit of the USZ Clinical Trials Center. Due to its anionic properties, ITPP acts a potent chelator of calcium. Therefore, administration with CaCl2 (Baxter) at a 1:0.75 molar ratio has been determined to prevent hypocalcaemia. Respective doses were calculated based on body surface area (DuBois/DuBois formula). Cohort 1 started at weekly doses of 5600 mg/m^2 weekly, equal to the maximal weekly dose tested in healthy volunteers (unpublished data from Normoxys®). Dose escalation was performed according to the predefined scheme (Fig. 1a, Supplementary Note 1: page 6) up to a maximum weekly dose of 43,700 mg/m^2. During infusion days, participants had continuous monitoring of vital signs and daily 12-electrode electrocardiograms. Electrolytes measurements and venous blood gas analyses were performed three-hourly, while complete blood count, coagulation and routine kidney/liver parameters were assessed twice daily.
Severity of encountered AE was assessed following the CTCAE guidelines. Serious AE were defined as events being life-threatening, necessitating hospitalization, resulting in death or birth defects. DLT was defined as any AE ≥ grade 3 and sTET as any grade 2 AE considered to be definitely, probably or possibly related to ITPP. […] MTD was defined as the dose preceding the level at which 1 patient experienced a DLT or ≥3 patients experienced a sTET (Supplementary Note 1: page 6). The window for DLT/sTET/MTD assessment was from first dose of ITPP until first dose of chemotherapy or 10d following the last ITPP infusion. […]

[1] = cohort 1, SAE, relationship to IMP: Unrelated

Question: What does the source list for O=P1(O)OC2C3OP(=O)(O)OP(=O)(O)OC3C3OP(=O)(O)OP(=O)(O)OC3C2OP(=O)(O)O1 (centres unmarked) [ITPP, Myo-inositol trispyrophosphate]?
Answer: Number of treatment-related toxicities (TET, at least possibly related to ITPP) (28 patients, all cohorts): 32; Hypomagnesemia, patients (all CTCAE grade I): 5/28; Hypophosphatemia, patients (all CTCAE grade I): 4/28; Hypercalcemia of free ionized calcium, share of patients (all cohorts): 67.9 % of patients; Hypercalcemia, share of ITPP-related AE (all cohorts): 59.4%; Hypomagnesemia/-phosphatemia, share of ITPP-related AE (all cohorts): 28.1%; Number of AE unlikely to be ITPP-induced (all cohorts): 24; Number of serious adverse events (SAE) (all cohorts): 7; Share of AE at least possibly related to ITPP (all cohorts): 57%; AV Block 1° (AE, not ITPP-related) (all cohorts, n = 28, total (%)): Total: 1 (3.6%); Acute kidney injury grade 3 (AE, not ITPP-related) (all cohorts, n = 28, total (%)): Total: 1 (3.6%); Ascites due to oncological progress (AE, not ITPP-related) (all cohorts, n = 28, total (%)): Total: 3 (10.7%); C. difficile enteritis (AE, not ITPP-related) (all cohorts, n = 28, total (%)): Total: 1 (3.6%); Cholestasis (AE, not ITPP-related) (all cohorts, n = 28, total (%)): Total: 1 (3.6%); Fatigue (AE, not ITPP-related) (all cohorts, n = 28, total (%)): Total: 1 (3.6%); Hypercalcemia (TET) (all cohorts, n = 28, total (%)): 19 (67.9%); Hyperphosphatemia (TET) (all cohorts, n = 28, total (%)): Total: 1 (3.6%); Hypertension (TET) (all cohorts, n = 28, total (%)): Total: 3(10.7%); Hypokalemia (AE, not ITPP-related) (all cohorts, n = 28, total (%)): Total: 2 (7.1%); Hypomagnesemia (TET) (all cohorts, n = 28, total (%)): Total: 5 (17.9%); Hyponatremia (AE, not ITPP-related) (all cohorts, n = 28, total (%)): Total: 3 (10.7%); Hypophosphatemia (TET) (all cohorts, n = 28, total (%)): Total: 4 (14.3%); Icterus due to malignant obstruction (AE, not ITPP-related) (all cohorts, n = 28, total (%)): Total: 1 (3.6%); Lower gastrointestinal bleeding (AE, not ITPP-related) (all cohorts, n = 28, total (%)): Total: 1 (3.6%); Nausea & vomiting due to malignant infiltration of stomach (AE, not ITPP-related) (all cohorts, n = 28, total (%)): Total: 1 (3.6%); Nausea (AE, not ITPP-related) (all cohorts, n = 28, total (%)): Total: 1 (3.6%); Neutropenia (AE, not ITPP-related) (all cohorts, n = 28, total (%)): Total: 1 (3.6%); Palpitations (AE, not ITPP-related) (all cohorts, n = 28, total (%)): Total: 1 (3.6%); Pyrexia (AE, not ITPP-related) (all cohorts, n = 28, total (%)): Total: 2 (7.1%); Upper respiratory tract infection (AE, not ITPP-related) (all cohorts, n = 28, total (%)): Total: 3 (10.7%); Hyperphosphatemia, patients (asymptomatic, grade I): One; AV Block 1° (AE, not ITPP-related) (cohort 1, 1866 mg/m^2): 0; Acute kidney injury grade 3 (AE, not ITPP-related) (cohort 1, 1866 mg/m^2): 0; C. difficile enteritis (AE, not ITPP-related) (cohort 1, 1866 mg/m^2): 0; Cholestasis (AE, not ITPP-related) (cohort 1, 1866 mg/m^2): 0; Fatigue (AE, not ITPP-related) (cohort 1, 1866 mg/m^2): 0; Hypercalcemia (TET) (cohort 1, 1866 mg/m^2): 0; Hyperphosphatemia (TET) (cohort 1, 1866 mg/m^2): 0; Hypertension (TET) (cohort 1, 1866 mg/m^2): 0; Hypokalemia (AE, not ITPP-related) (cohort 1, 1866 mg/m^2): 0; Hypomagnesemia (TET) (cohort 1, 1866 mg/m^2): 0; Hyponatremia (AE, not ITPP-related) (cohort 1, 1866 mg/m^2): 0; Hypophosphatemia (TET) (cohort 1, 1866 mg/m^2): 0; Icterus due to malignant obstruction (AE, not ITPP-related) (cohort 1, 1866 mg/m^2): 0; Nausea & vomiting due to malignant infiltration of stomach (AE, not ITPP-related) (cohort 1, 1866 mg/m^2): 0; Nausea (AE, not ITPP-related) (cohort 1, 1866 mg/m^2): 0; Neutropenia (AE, not ITPP-related) (cohort 1, 1866 mg/m^2): 0; Palpitations (AE, not ITPP-related) (cohort 1, 1866 mg/m^2): 0; Upper respiratory tract infection (AE, not ITPP-related) (cohort 1, 1866 mg/m^2): 0; Pyrexia, CTCAE-Grade (cohort 1, AE, relationship to IMP: Unrelated): 1; Ascites & death due to rapid progression of malignancy, CTCAE-Grade [1]: 5; Lower gastrointestinal bleeding, CTCAE-Grade [1]: 2; AV Block 1° (AE, not ITPP-related) (cohort 2, 3732 mg/m^2): 0; Acute kidney injury grade 3 (AE, not ITPP-related) (cohort 2, 3732 mg/m^2): 0; Ascites due to oncological progress (AE, not ITPP-related) (cohort 2, 3732 mg/m^2): 0; C. difficile enteritis (AE, not ITPP-related) (cohort 2, 3732 mg/m^2): 0; Cholestasis (AE, not ITPP-related) (cohort 2, 3732 mg/m^2): 0; Fatigue (AE, not ITPP-related) (cohort 2, 3732 mg/m^2): 0; Hyperphosphatemia (TET) (cohort 2, 3732 mg/m^2): 0; Hypertension (TET) (cohort 2, 3732 mg/m^2): 0; Hypokalemia (AE, not ITPP-related) (cohort 2, 3732 mg/m^2): 0; Hyponatremia (AE, not ITPP-related) (cohort 2, 3732 mg/m^2): 0; Hypophosphatemia (TET) (cohort 2, 3732 mg/m^2): 0; Icterus due to malignant obstruction (AE, not ITPP-related) (cohort 2, 3732 mg/m^2): 0; Lower gastrointestinal bleeding (AE, not ITPP-related) (cohort 2, 3732 mg/m^2): 0; Nausea (AE, not ITPP-related) (cohort 2, 3732 mg/m^2): 0; Neutropenia (AE, not ITPP-related) (cohort 2, 3732 mg/m^2): 0; Palpitations (AE, not ITPP-related) (cohort 2, 3732 mg/m^2): 0; Pyrexia (AE, not ITPP-related) (cohort 2, 3732 mg/m^2): 0; Upper respiratory tract infection (AE, not ITPP-related) (cohort 2, 3732 mg/m^2): 0; Hypercalcemia, CTCAE-Grade (cohort 2, AE): 1; Hypomagnesemia, CTCAE-Grade (cohort 2, AE, relationship to IMP: Probably): 1; Nausea & Vomiting necessitating hospitalisation, CTCAE-Grade (cohort 2, SAE, relationship to IMP: Unrelated): 2; AV Block 1° (AE, not ITPP-related) (cohort 3, 5600 mg/m^2): 0; Acute kidney injury grade 3 (AE, not ITPP-related) (cohort 3, 5600 mg/m^2): 0; Ascites due to oncological progress (AE, not ITPP-related) (cohort 3, 5600 mg/m^2): 0; Fatigue (AE, not ITPP-related) (cohort 3, 5600 mg/m^2): 0; Hyperphosphatemia (TET) (cohort 3, 5600 mg/m^2): 0; Hypertension (TET) (cohort 3, 5600 mg/m^2): 0; Hypokalemia (AE, not ITPP-related) (cohort 3, 5600 mg/m^2): 0; Hypomagnesemia (TET) (cohort 3, 5600 mg/m^2): 0; Hyponatremia (AE, not ITPP-related) (cohort 3, 5600 mg/m^2): 0; Icterus due to malignant obstruction (AE, not ITPP-related) (cohort 3, 5600 mg/m^2): 0; Lower gastrointestinal bleeding (AE, not ITPP-related) (cohort 3, 5600 mg/m^2): 0; Nausea & vomiting due to malignant infiltration of stomach (AE, not ITPP-related) (cohort 3, 5600 mg/m^2): 0; Nausea (AE, not ITPP-related) (cohort 3, 5600 mg/m^2): 0; Neutropenia (AE, not ITPP-related) (cohort 3, 5600 mg/m^2): 0; Pyrexia (AE, not ITPP-related) (cohort 3, 5600 mg/m^2): 0; Upper respiratory tract infection (AE, not ITPP-related) (cohort 3, 5600 mg/m^2): 0; Hypercalcemia, CTCAE-Grade (cohort 3, AE): 1; Hypophosphatemia, CTCAE-Grade (cohort 3, AE, relationship to IMP: Probably): 1; Palpations, CTCAE-Grade (cohort 3, AE, relationship to IMP: Unrelated): 1; Cholestasis, CTCAE-Grade (cohort 3, SAE, relationship to IMP: Unlikely): 1; C. difficile enteritis, CTCAE-Grade (cohort 3, SAE, relationship to IMP: Unrelated): 3; AV Block 1° (AE, not ITPP-related) (cohort 4, 7000 mg/m^2): 0; C. difficile enteritis (AE, not ITPP-related) (cohort 4, 7000 mg/m^2): 0; Cholestasis (AE, not ITPP-related) (cohort 4, 7000 mg/m^2): 0; Hyperphosphatemia (TET) (cohort 4, 7000 mg/m^2): 0; Hypokalemia (AE, not ITPP-related) (cohort 4, 7000 mg/m^2): 0; Hypomagnesemia (TET) (cohort 4, 7000 mg/m^2): 0; Hyponatremia (AE, not ITPP-related) (cohort 4, 7000 mg/m^2): 0
